Experiment: QSRR estimation of CHIn+Fbt and CHIbt from LC retention times
Format: physicochemical
Conditions: predicted (QSRR, equation 13); parent-drug label = average for that drug

SMILES: CC(C)c1c(C(=O)Nc2ccccc2)c(-c2ccccc2)c(-c2ccc(F)cc2)n1CC[C@@H](O)C[C@@H](O)CC(=O)O [atorvastatin]
- CHIbt, aromatic oxidation (w/o HB): -16.4
- CHIbt, aromatic oxidation with HB: -2.9
